Data set [1] deals with T1, Myeloperoxidase (Homo sapiens, UniProt P05164).
T1 sequence (P05164 whole entry): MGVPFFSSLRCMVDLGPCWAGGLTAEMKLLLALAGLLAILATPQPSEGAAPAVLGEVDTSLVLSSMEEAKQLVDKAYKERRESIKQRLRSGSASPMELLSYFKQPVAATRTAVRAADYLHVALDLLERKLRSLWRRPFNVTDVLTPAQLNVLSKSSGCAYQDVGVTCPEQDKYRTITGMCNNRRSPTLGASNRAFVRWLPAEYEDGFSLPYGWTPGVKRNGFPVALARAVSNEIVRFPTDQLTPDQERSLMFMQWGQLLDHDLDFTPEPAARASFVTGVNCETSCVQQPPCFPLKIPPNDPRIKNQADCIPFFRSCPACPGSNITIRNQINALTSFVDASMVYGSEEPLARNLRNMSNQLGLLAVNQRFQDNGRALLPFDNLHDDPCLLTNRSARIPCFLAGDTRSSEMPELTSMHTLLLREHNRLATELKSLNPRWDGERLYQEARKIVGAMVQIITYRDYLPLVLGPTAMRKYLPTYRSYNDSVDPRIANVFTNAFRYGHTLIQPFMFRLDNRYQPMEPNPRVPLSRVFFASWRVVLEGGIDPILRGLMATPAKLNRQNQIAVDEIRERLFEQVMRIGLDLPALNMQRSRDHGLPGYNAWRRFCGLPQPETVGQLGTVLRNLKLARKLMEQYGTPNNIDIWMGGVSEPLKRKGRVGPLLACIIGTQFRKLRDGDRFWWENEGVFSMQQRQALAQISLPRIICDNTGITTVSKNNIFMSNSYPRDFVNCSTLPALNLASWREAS
The experiment in a line: Inhibition of recombinant human MPO incubated for 10 mins by amplex red dye based assay.

In data set [2] the target is T1, Myeloperoxidase. The experiment in a line: Inhibition of recombinant human MPO incubated for 10 mins in presence of 240 mM NaCl and 10 uM H2O2 by aminophenyl fluorescein based assay.
Data set [3] in a line: Metabolic stability in mouse liver microsomes assessed as compound remaining. It counts as ADME, Microsome. (Microsomes from liver hold many membrane-bound enzymes, among them those of drug oxidation.)
A short description of data set [4]: Metabolic stability in human liver microsomes assessed as compound remaining. The data set is classed as ADME, Microsome.
Data set [5] is described as follows: Permeability of compound at pH 7.4 by PAMPA assay. The data set is classed as ADME. As to conditions: read-out: permeability; call rule not given here.
Data set [6] in a line: Dissociation constant, pKa of the compound. It counts as physicochemical.
In data set [7] the target is Cytochrome P450 3A4 (Homo sapiens, UniProt P08684). Put plainly: Inhibition of CYP3A4 (unknown origin). The data set is classed as ADME.
Cytochrome P450 3A4, sequence (P08684 whole entry): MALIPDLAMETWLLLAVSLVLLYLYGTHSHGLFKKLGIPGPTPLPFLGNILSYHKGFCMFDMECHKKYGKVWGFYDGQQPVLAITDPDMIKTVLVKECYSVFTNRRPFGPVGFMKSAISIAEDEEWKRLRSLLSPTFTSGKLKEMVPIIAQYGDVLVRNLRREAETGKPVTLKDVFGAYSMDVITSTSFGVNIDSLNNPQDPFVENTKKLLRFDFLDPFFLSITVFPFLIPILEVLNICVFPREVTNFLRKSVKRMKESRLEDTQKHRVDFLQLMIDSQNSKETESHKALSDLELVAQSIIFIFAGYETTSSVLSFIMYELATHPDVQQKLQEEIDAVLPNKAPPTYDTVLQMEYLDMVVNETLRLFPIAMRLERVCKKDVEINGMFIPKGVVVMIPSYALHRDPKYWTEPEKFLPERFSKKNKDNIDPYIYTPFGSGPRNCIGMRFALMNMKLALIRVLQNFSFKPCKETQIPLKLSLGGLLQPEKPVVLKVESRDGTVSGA
Data set [8] addresses T2, Thyroid peroxidase (Homo sapiens, UniProt P07202).
T2 sequence (P07202 whole entry): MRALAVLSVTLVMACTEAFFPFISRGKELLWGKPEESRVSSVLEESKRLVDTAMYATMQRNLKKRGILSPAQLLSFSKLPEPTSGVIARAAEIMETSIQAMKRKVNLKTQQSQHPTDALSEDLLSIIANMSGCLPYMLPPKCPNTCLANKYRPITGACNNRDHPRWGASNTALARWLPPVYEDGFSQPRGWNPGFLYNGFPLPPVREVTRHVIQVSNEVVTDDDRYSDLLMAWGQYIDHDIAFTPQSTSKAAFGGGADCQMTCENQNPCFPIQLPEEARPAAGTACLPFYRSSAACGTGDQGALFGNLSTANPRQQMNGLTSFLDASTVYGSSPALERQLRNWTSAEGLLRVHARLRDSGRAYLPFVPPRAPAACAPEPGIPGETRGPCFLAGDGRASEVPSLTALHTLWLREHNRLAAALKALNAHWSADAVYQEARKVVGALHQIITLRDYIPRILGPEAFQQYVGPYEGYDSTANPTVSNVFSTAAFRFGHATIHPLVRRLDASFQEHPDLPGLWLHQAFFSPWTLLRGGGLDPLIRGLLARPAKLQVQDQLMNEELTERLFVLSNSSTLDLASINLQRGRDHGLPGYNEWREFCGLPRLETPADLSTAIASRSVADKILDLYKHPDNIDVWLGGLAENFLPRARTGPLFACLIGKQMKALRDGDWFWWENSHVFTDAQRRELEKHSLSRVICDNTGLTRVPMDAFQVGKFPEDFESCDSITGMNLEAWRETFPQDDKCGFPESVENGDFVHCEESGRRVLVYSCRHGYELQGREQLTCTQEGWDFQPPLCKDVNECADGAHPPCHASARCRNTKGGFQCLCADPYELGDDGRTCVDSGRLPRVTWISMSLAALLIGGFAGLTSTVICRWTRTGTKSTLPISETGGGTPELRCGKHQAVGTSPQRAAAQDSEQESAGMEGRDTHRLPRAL
Put plainly: Inhibition of TPO (unknown origin) using 3-iodo tyrosine as substrate incubated for 10 mins.

For data set [9], the target named is T3, Methylated-DNA--protein-cysteine methyltransferase (Homo sapiens, UniProt P16455).
T3 sequence (P16455 whole entry): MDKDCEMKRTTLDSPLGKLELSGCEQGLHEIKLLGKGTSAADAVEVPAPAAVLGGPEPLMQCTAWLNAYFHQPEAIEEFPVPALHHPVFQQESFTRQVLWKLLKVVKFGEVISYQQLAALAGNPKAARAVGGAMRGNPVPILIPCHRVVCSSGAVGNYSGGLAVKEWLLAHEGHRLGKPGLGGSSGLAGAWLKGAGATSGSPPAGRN
The experiment in a line: Inhibition of human MGMT using 06-benzylguanine as substrate incubated for 30 mins by LC/MS analysis. Conditions: 0.5 h.

A short description of data set [10]: Stability of compound at pH 1 assessed as half life. Conditions: buffer. The data set is classed as physicochemical.

Some results are limits rather than exact numbers.

The source of these data is ChEMBL document CHEMBL4699540, “Discovery and structure activity relationships of 7-benzyl triazolopyridines as stable, selective, and reversible inhibitors of myeloperoxidase” (Bioorg Med Chem, 2020).

Usually IC50 stands for the concentration needed to halve the response being measured. Regarding `Nc1cc(Cc2cccc(-c3ccccc3)c2)c2nn[nH]c2n1`, the IC50 in [1] came out at 77 nM; in [2], 127 nM.
Regarding `Nc1cc([C@H](CCNC23CCC(c4ccccc4)(CC2)CC3)c2ccccc2)c2nn[nH]c2n1`, the Stabilty in data set [3] was 85%; in data set [4], 91%. In data set [5], the Papp was found to be 1.7 ×10⁻⁶ cm/s.
The pKa is the negative logarithm of the acid dissociation constant. A higher pKa goes with a weaker acid or stronger base. Consider `Nc1nc(NCc2ccccc2)c2nn[nH]c2n1`, for which the 50% inhibitory concentration (IC50) in data set [1] and in data set [2] was more than 40000 nM each time. Also, the pKa in data set [6] came out at 7.8.
Consider `Nc1cc([C@H](CCCc2ccccc2)c2ccccc2)c2nn[nH]c2n1`, for which the Stabilty in data set [3] worked out at 1%; in [4], 31%. The same compound showed a concentration for half-maximal inhibition (IC50) in data set [7] of 1800 nM. In addition, in [5], the Papp is 125 ×10⁻⁶ cm/s.
For `Nc1cc([C@H](Cc2ccccc2)c2ccccc2)c2nn[nH]c2n1`, in that order: 53%, 84%, 3400 nM and 64.8 ×10⁻⁶ cm/s.
Regarding `Nc1cc([C@H](CCN[C@H]2C[C@@H](c3ccccc3)c3ccccc32)c2ccccc2)c2nn[nH]c2n1`, the Stabilty was 28% in data set [3] and 35% in data set [4].
Turning to `Nc1cc([C@H](CCN[C@H]2CC[C@H](c3ccccc3)CC2)c2ccccc2)c2nn[nH]c2n1`, the Stabilty in [3] was 79%; in data set [4] it was 80%.
For the compound `Nc1cc([C@H](CCCN2CCC(c3ccccc3)CC2)c2ccccc2)c2nn[nH]c2n1`, the Papp in data set [5] amounted to 1.3 ×10⁻⁶ cm/s.
Consider `Nc1cc([C@H](CCNCc2ccccc2)c2ccccc2)c2nn[nH]c2n1`, for which the values for the Stabilty in data set [3] and in [4] were 85% and 88%, respectively. Further, the half-maximal inhibitory concentration (IC50) was more than 50000 nM in data set [8] and 12000 nM in data set [7]. The Papp in data set [5] came to 4.3 ×10⁻⁶ cm/s.
For `Nc1cc([C@H](CCOCc2ccccc2)c2ccccc2)c2nn[nH]c2n1`, the figures for the Stabilty in [3] and in data set [4] were 1% and 2%, respectively. Further, the IC50 in [8] worked out at 6300 nM; in [7], 2600 nM. For the same compound, the Papp in [5] was found to be 73 ×10⁻⁶ cm/s.
With `Nc1cc([C@H](CCN[C@@H]2CC[C@@H](c3ccccc3)C2)c2ccccc2)c2nn[nH]c2n1`, the results for the Stabilty in [3] and in [4] were 45% and 73%, respectively. Moreover, in data set [5], the Papp is 2.4 ×10⁻⁶ cm/s.
Consider `Nc1cc(Cc2ccccc2F)c2nn[nH]c2n1`, for which the IC50 in data set [1] was found to be 46 nM; in data set [2] it was 32 nM.
For `Nc1cc([C@H](CCN[C@H]2CCc3ccccc32)c2ccccc2)c2nn[nH]c2n1`, the figures for the Stabilty in data set [3] and in data set [4] were 51% and 65%, respectively. Moreover, the Papp in data set [5] is 6.5 ×10⁻⁶ cm/s.
Take `CN(Cc1ccccc1)c1nc(N)nc2[nH]nnc12`: the half-maximal inhibitory concentration (IC50) in data set [1] and in [2] was more than 40000 nM throughout.
`Nc1cc(Cc2ccc(Cl)cc2)c2nn[nH]c2n1`: the half-inhibitory concentration (IC50) in data set [1] was determined as 9300 nM; in [2], 1700 nM.
Take `Nc1cc([C@H](CCN[C@@H]2CC[C@@H](c3ccccc3)OC2)c2ccccc2)c2nn[nH]c2n1`: the Papp in data set [5] turned out to be 3.7 ×10⁻⁶ cm/s.
Consider `Nc1cc([C@H](CCN[C@@H]2CC[C@@H](c3ccccc3)c3ccccc32)c2ccccc2)c2nn[nH]c2n1`, for which the Stabilty is on record as 10% in data set [3] and 9% in data set [4].
For `Nc1cc(Cc2cccc(Cl)c2)c2nn[nH]c2n1`, the IC50 in data set [1] turned out to be 32 nM; in data set [2], 16 nM.
As to `COC(=O)c1cccc(Cc2cc(N)nc3[nH]nnc23)c1`, the IC50 in [1] turned out to be 17 nM; in [2], 29 nM.
For `Nc1nc(CCc2ccccc2)c2nn[nH]c2n1`, the 50% inhibitory concentration (IC50) was 9840 nM in data set [1] and 7450 nM in data set [2].
For `Nc1cc([C@H](CCNCc2ccccc2C(F)(F)F)c2ccccc2)c2nn[nH]c2n1`, the Stabilty in data set [3] is 3%; in [4] it was 2%. Also, the Papp in [5] is 23.7 ×10⁻⁶ cm/s.
Consider `Nc1cc(Cc2cccc(C(F)(F)F)c2)c2nn[nH]c2n1`, for which the concentration for half-maximal inhibition (IC50) in [1] is 1430 nM; in [2], 683 nM.
The half-life is the time in which the quantity being followed falls by half. On to `Nc1cc(OCc2ccccc2)c2nn[nH]c2n1`, for which the “inhibition (INH)” value in [9] is “Active”. In [10], the half-life was more than 100 h.
For `CN(CC[C@H](c1ccccc1)c1cc(N)nc2[nH]nnc12)C12CCC(c3ccccc3)(CC1)CC2`, in data set [5], the Papp was 0.1 ×10⁻⁶ cm/s.
On the same count and under the same terms, the value for `Nc1cc(C(CCNC23CCC(c4ccccc4)(CC2)OC3)c2ccccc2)c2nn[nH]c2n1` (centres undefined) was 10.4 ×10⁻⁶ cm/s; that for `Nc1cc([C@H](CCN(CCF)C23CCC(c4ccccc4)(CC2)CC3)c2ccccc2)c2nn[nH]c2n1` was 21.7 ×10⁻⁶ cm/s.
For `Nc1cc(Cc2ccc3ccccc3c2)c2nn[nH]c2n1`, the half-inhibitory concentration (IC50) in data set [1] turned out to be 188 nM; in [2], 57 nM.
Turning to `Nc1nc(Cc2ccccc2)c2nn[nH]c2n1`, in data set [9], the “inhibition (INH)” value is reported as “Not Active”. Also, in data set [10], the half-life was 16 h. The IC50 in [1] was 428 nM; in data set [2], 110 nM. Besides, the pKa in data set [6] came out at 6.3.
